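Test compounds were applied to cells in 96-well plates for 48 hours at 5 doses. TGI is the concentration that stops growth completely.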

Test systems include BT-549 breast; OVCAR-5 ovarian; UO-31 renal; UACC-62 melanoma; MCF7 breast; HL-60(TB) leukemia; HT29 colon; SN12C renal; SK-OV-3 ovarian; MOLT-4 leukemia.
Common to all, as to test: growth of human tumour cells (NCI), 48 h

With `c1ccc2c(c1)SCCCS2`, the TGI in the assay on BT-549 breast, with OVCAR-5 ovarian, in the assay on UO-31 renal, in the assay with UACC-62 melanoma, in the assay with MCF7 breast and in the assay with HL-60(TB) leukemia was above 100 µM in each case. For the same compound, the TGI in the assay on HT29 colon, in the assay with SN12C renal, with SK-OV-3 ovarian and in the assay with MOLT-4 leukemia was above 100 µM in each case.

Regarding `OCc1ccc2c(c1)CC1(C2)Cc2cc3c(cc2C1O)CCC3` (stereo not given), the TGI in the assay with BT-549 breast was 16 µM; with OVCAR-5 ovarian, 56.1 µM; in the assay with UO-31 renal, 24.1 µM; with UACC-62 melanoma, 16.2 µM; in the assay on MCF7 breast it was 17.6 µM; in the assay on HL-60(TB) leukemia, above 23.4 µM. Further, the TGI worked out at 17.5 µM in the assay with HT29 colon, 23.8 µM in the assay with SN12C renal, 46.6 µM with SK-OV-3 ovarian and 21.1 µM in the assay on MOLT-4 leukemia.

Turning to `O=c1c2c3c(sc2[nH]c(=S)n1-c1ccccc1)CCCc1ccc([N+](=O)[O-])cc1-3`, the TGI with BT-549 breast was 72.6 µM; in the assay with OVCAR-5 ovarian, above 100 µM; in the assay on UO-31 renal, above 100 µM; with UACC-62 melanoma, 85 µM; in the assay on MCF7 breast, above 100 µM; with HL-60(TB) leukemia, 50.8 µM. In addition, the TGI in the assay on HT29 colon is 61.3 µM; with SN12C renal it was above 100 µM; with SK-OV-3 ovarian, above 100 µM; with MOLT-4 leukemia it was 52 µM.

For the compound `C[C@@H]1CC[C@@]2(C)C(C(=O)O)=CCCC2[C@@]1(C)CC(=O)c1ccoc1` (stereo not given in full), the TGI with BT-549 breast, with OVCAR-5 ovarian, in the assay with UO-31 renal, in the assay on UACC-62 melanoma, in the assay on MCF7 breast and in the assay on HL-60(TB) leukemia was above 25 µM each time. In addition, the TGI in the assay with HT29 colon, with SN12C renal, in the assay on SK-OV-3 ovarian and with MOLT-4 leukemia was above 25 µM throughout.

`CC(C)NC(=O)OCc1c(COC(=O)NC(C)C)n(C)c2c1ccc1sccc12`: the TGI with BT-549 breast was 10.7 µM; in the assay on OVCAR-5 ovarian it was above 100 µM; with UO-31 renal it was 68.7 µM; with UACC-62 melanoma, 32.5 µM; in the assay with MCF7 breast it was above 55.5 µM; in the assay on HL-60(TB) leukemia it was above 100 µM. For the same compound, the TGI in the assay on HT29 colon was above 82.6 µM; in the assay with SN12C renal it was 76.2 µM; in the assay with SK-OV-3 ovarian, above 100 µM; with MOLT-4 leukemia, above 86.1 µM.

Take `O=C(ON=C1c2ccccc2C(Br)C(Br)c2ccccc21)c1ccccc1` (stereo not given): the TGI with BT-549 breast amounted to 35.7 µM; in the assay on OVCAR-5 ovarian it was 35.6 µM; in the assay on UO-31 renal it was 8.32 µM; in the assay on UACC-62 melanoma, 32.7 µM; with MCF7 breast, 31.5 µM; in the assay on HL-60(TB) leukemia it was 1.22 µM. Also, the TGI in the assay with HT29 colon is 38 µM; in the assay on SN12C renal, 42.9 µM; in the assay with SK-OV-3 ovarian, 38.9 µM; in the assay on MOLT-4 leukemia it was 4.61 µM.

With `OCc1cn(Cc2ccccc2)c2ccccc12`, the TGI in the assay on BT-549 breast was 23.1 µM; in the assay on OVCAR-5 ovarian, 0.838 µM; with UO-31 renal, above 100 µM; with UACC-62 melanoma it was 4.98 µM; with MCF7 breast, above 18 µM; with HL-60(TB) leukemia, above 83.2 µM. For the same compound, the TGI is above 84.5 µM in the assay on HT29 colon, above 46.8 µM with SN12C renal, above 100 µM with SK-OV-3 ovarian and above 100 µM with MOLT-4 leukemia.

With `CCOC1C=CC(=O)C(CO)O1` (stereo not given), the TGI is 26.1 µM with BT-549 breast; 35.2 µM with OVCAR-5 ovarian; 4.77 µM in the assay on UO-31 renal; 25.9 µM in the assay with UACC-62 melanoma; 17.7 µM with MCF7 breast; 20.9 µM with HL-60(TB) leukemia. The TGI with HT29 colon came to 25.4 µM; in the assay on SN12C renal it was 26.8 µM; with SK-OV-3 ovarian it was 33.3 µM; in the assay with MOLT-4 leukemia, 21.2 µM.

As for `Cn1c2ccccc2n2c3ncccc3c(=O)c(C#N)c12`, the TGI was 57.3 µM in the assay with BT-549 breast; above 100 µM in the assay with OVCAR-5 ovarian; 43.1 µM in the assay with UO-31 renal; 28.4 µM in the assay on UACC-62 melanoma; 21.1 µM in the assay on MCF7 breast; above 100 µM in the assay with HL-60(TB) leukemia. Further, the TGI in the assay with HT29 colon was above 100 µM; in the assay on SN12C renal, above 100 µM; in the assay on SK-OV-3 ovarian, 98.1 µM; in the assay with MOLT-4 leukemia it was above 100 µM.

Consider `CC(=O)Nc1nc(Cl)cc(NCC2(CO)CCC2)n1`, for which the TGI in the assay with BT-549 breast, with OVCAR-5 ovarian, with UO-31 renal, in the assay on UACC-62 melanoma, in the assay on MCF7 breast and with HL-60(TB) leukemia was above 100 µM in each case. Besides, the TGI in the assay with HT29 colon, in the assay on SN12C renal, in the assay on SK-OV-3 ovarian and with MOLT-4 leukemia was above 100 µM in each case.

In the case of `CC1(C)CC(=O)C2=C(C1)C(c1ccccc1Cl)C1C(=O)CC(C)(C)CC1(O)O2` (stereo not given), the TGI is above 100 µM in the assay on BT-549 breast; above 100 µM in the assay on OVCAR-5 ovarian; above 100 µM in the assay with UO-31 renal; above 100 µM in the assay on UACC-62 melanoma; above 100 µM with MCF7 breast; above 43.7 µM in the assay with HL-60(TB) leukemia. For the same compound, the TGI in the assay on HT29 colon, in the assay on SN12C renal, in the assay on SK-OV-3 ovarian and in the assay on MOLT-4 leukemia was above 100 µM throughout.

On to `NC1=CC(=O)c2c(O)ccc(O)c2C1=O`, for which the TGI amounted to 30.9 µM in the assay with BT-549 breast; 35.3 µM with OVCAR-5 ovarian; 15.7 µM in the assay on UO-31 renal; 26.5 µM in the assay on UACC-62 melanoma; 18.6 µM in the assay on MCF7 breast; 6.83 µM in the assay with HL-60(TB) leukemia. Besides, the TGI is 19.8 µM in the assay on HT29 colon, 31.5 µM in the assay on SN12C renal, above 94.5 µM in the assay with SK-OV-3 ovarian and above 34.9 µM in the assay on MOLT-4 leukemia.

Take `Cc1ccc(-c2cc(-c3ccco3)c(C#N)c(=S)[nH]2)cc1`: the TGI in the assay on BT-549 breast, in the assay on OVCAR-5 ovarian, with UO-31 renal, in the assay with UACC-62 melanoma, with MCF7 breast and in the assay with HL-60(TB) leukemia was above 100 µM in each case. For the same compound, the TGI in the assay with HT29 colon, with SN12C renal, in the assay with SK-OV-3 ovarian and in the assay on MOLT-4 leukemia was above 100 µM throughout.

For `CC(C)C(Br)CCC1=CCC(Br)(Br)C1` (stereo not given), the TGI was 34.9 µM in the assay on BT-549 breast; 30.5 µM in the assay on OVCAR-5 ovarian; 21.9 µM with UO-31 renal; 19.9 µM in the assay on UACC-62 melanoma; 23.9 µM in the assay with MCF7 breast; above 100 µM in the assay with HL-60(TB) leukemia. Moreover, the TGI in the assay on HT29 colon was 28.6 µM; in the assay on SN12C renal it was 15.2 µM; in the assay on SK-OV-3 ovarian, 28.1 µM; in the assay on MOLT-4 leukemia it was above 100 µM.

Source of the values: PubChem BioAssay (NCI).
